In brackets after ≈: the same amount, converted by molar mass. Activity calls are given as the source filed them. The rule behind the calls is not given here.
Assays:
Shigella dysenteriae [1] = experiment: Antibacterial activity against Shigella dysenteriae 15 assessed as growth inhibition after 24 hr by agar dilution method; format: functional; details: Shigella dysenteriae, 15, 24 h
Klebsiella pneumoniae [2] = experiment: Antibacterial activity against Klebsiella pneumoniae J/I/4 assessed as cell agglomeration at MIC after 24 hr by scanning electron microscopic analysis relative to untreated control; format: functional, organism-based
Vibrio cholerae [3] = experiment: Antibacterial activity against Vibrio cholerae 759 assessed as growth inhibition after 24 hr by agar dilution method; format: functional; details: Vibrio cholerae, 759, 24 h
Klebsiella pneumoniae [4] = experiment: Antibacterial activity against Klebsiella pneumoniae J/I/4 assessed as growth inhibition at MIC; format: functional, organism-based; details: TDE = time-dependent effect
Micrococcus luteus [5] = experiment: Antibacterial activity against Micrococcus luteus ATCC 9341 assessed as growth inhibition after 24 hr by agar dilution method; format: functional; details: ATCC 9341, 24 h
Klebsiella pneumoniae [6] = experiment: Antibacterial activity against Klebsiella pneumoniae J/I/4 assessed as cell wall deformation at MIC after 24 hr by scanning electron microscopic analysis relative to untreated control; format: functional, organism-based
Pseudomonas aeruginosa [7] = experiment: Antibacterial activity against Pseudomonas aeruginosa 71 assessed as growth inhibition at MIC after 24 hr by agar dilution method; format: functional
Candida tropicalis [8] = experiment: Antifungal activity against Candida tropicalis assessed as growth inhibition after 96 hr by agar dilution method; format: functional
Staphylococcus aureus [9] = experiment: Antibacterial activity against Staphylococcus aureus 29737 assessed as growth inhibition at MIC after 24 hr by agar dilution method; format: functional
Klebsiella pneumoniae [10] = experiment: Antibacterial activity against Klebsiella pneumoniae J/I/4 assessed as growth inhibition at MIC after 24 hr by agar dilution method; format: functional
Escherichia coli [11] = experiment: Antibacterial activity against Escherichia coli 319 assessed as growth inhibition after 24 hr by agar dilution method; format: functional; details: Escherichia coli, 319, 24 h
Bacillus pumilus [12] = experiment: Antibacterial activity against Bacillus pumilus 11778 assessed as growth inhibition at MIC after 24 hr by agar dilution method; format: functional
Staphylococcus aureus [13] = experiment: Antibacterial activity against Staphylococcus aureus 29737 assessed as growth inhibition after 24 hr by agar dilution method; format: functional; details: Staphylococcus aureus, 29737, 24 h
Shigella dysenteriae [14] = experiment: Antibacterial activity against Shigella dysenteriae 15 assessed as growth inhibition at MIC after 24 hr by agar dilution method; format: functional
Candida albicans [15] = experiment: Antifungal activity against Candida albicans assessed as growth inhibition after 96 hr by agar dilution method; format: functional
Aspergillus niger [16] = experiment: Antifungal activity against Aspergillus niger assessed as growth inhibition after 96 hr by agar dilution method; format: functional
Cryptococcus neoformans [17] = experiment: Antifungal activity against Cryptococcus neoformans assessed as growth inhibition after 96 hr by agar dilution method; format: functional
Pseudomonas aeruginosa [18] = experiment: Antibacterial activity against Pseudomonas aeruginosa 71 assessed as growth inhibition after 24 hr by agar dilution method; format: functional; details: Pseudomonas aeruginosa, 71, 24 h
Bacillus pumilus [19] = experiment: Antibacterial activity against Bacillus pumilus 11778 assessed as growth inhibition after 24 hr by agar dilution method; format: functional; details: Bacillus pumilus, 11778, 24 h
Vibrio cholerae [20] = experiment: Antibacterial activity against Vibrio cholerae 759 assessed as growth inhibition at MIC after 24 hr by agar dilution method; format: functional
Micrococcus luteus [21] = experiment: Antibacterial activity against Micrococcus luteus ATCC 9341 assessed as growth inhibition at MIC after 24 hr by agar dilution method; format: functional
Klebsiella pneumoniae [22] = experiment: Antibacterial activity against Klebsiella pneumoniae J/I/4 assessed as growth inhibition after 24 hr by agar dilution method; format: functional; details: J/I/4, 24 h
Escherichia coli [23] = experiment: Antibacterial activity against Escherichia coli 319 assessed as growth inhibition at MIC after 24 hr by agar dilution method; format: functional
Candida albicans [24] = experiment: Antifungal activity against Candida albicans assessed as growth inhibition at MIC after 96 hr by agar dilution method; format: functional
Candida tropicalis [25] = experiment: Antifungal activity against Candida tropicalis assessed as growth inhibition at MIC after 96 hr by agar dilution method; format: functional
Cryptococcus neoformans [26] = experiment: Antifungal activity against Cryptococcus neoformans assessed as growth inhibition at MIC after 96 hr by agar dilution method; format: functional
Aspergillus niger [27] = experiment: Antifungal activity against Aspergillus niger assessed as growth inhibition at MIC after 96 hr by agar dilution method; format: functional
Escherichia coli [28] = experiment: Antibacterial activity against Escherichia coli 319 assessed as growth inhibition at MIC; format: functional, organism-based; details: TDE = time-dependent effect

Compound	MIC (Shigella dysenteriae [1])	MIC (Vibrio cholerae [3])	MIC (Micrococcus luteus [5])	diameter of the inhibition zone (DIZ) (Pseudomonas aeruginosa [7])	MIC (Candida tropicalis [8])	diameter of the inhibition zone (DIZ) (Staphylococcus aureus [9])	diameter of the inhibition zone (DIZ) (Klebsiella pneumoniae [10])	MIC (Escherichia coli [11])	diameter of the inhibition zone (DIZ) (Bacillus pumilus [12])	MIC (Staphylococcus aureus [13])	diameter of the inhibition zone (DIZ) (Shigella dysenteriae [14])	MIC (Candida albicans [15])	MIC (Aspergillus niger [16])	MIC (Cryptococcus neoformans [17])	MIC (Pseudomonas aeruginosa [18])	MIC (Bacillus pumilus [19])	diameter of the inhibition zone (DIZ) (Vibrio cholerae [20])	diameter of the inhibition zone (DIZ) (Micrococcus luteus [21])	MIC (Klebsiella pneumoniae [22])	diameter of the inhibition zone (DIZ) (Escherichia coli [23])	further results
Clc1ccc(OCc2cc3ccccc3cc2COc2ccc(Cl)c3cccnc23)c2ncccc12	> 500 µg/mL	128 µg/mL (≈ 250 µM)	32 µg/mL (≈ 62.6 µM)	inactive	inactive	6 mm	7 mm	32 µg/mL (≈ 62.6 µM)	8 mm	> 500 µg/mL	inactive	inactive	inactive	inactive	> 500 µg/mL	32 µg/mL (≈ 62.6 µM)	8 mm	8 mm	32 µg/mL (≈ 62.6 µM)	7.2 mm	Activity (Klebsiella pneumoniae [2]): Active; growth inhibition (GI) (Klebsiella pneumoniae [4]): tde; Activity (Klebsiella pneumoniae [6]): Active
Clc1ccc(OCc2nc3ccccc3nc2COc2ccc(Cl)c3cccnc23)c2ncccc12	> 500 µg/mL	> 500 µg/mL	32 µg/mL (≈ 62.3 µM)	inactive	1500 µg/mL (≈ 2920 µM)	inactive	6 mm	32 µg/mL (≈ 62.3 µM)	8 mm	> 500 µg/mL	6 mm	1000 µg/mL (≈ 1950 µM)	1000 µg/mL (≈ 1950 µM)	inactive	> 500 µg/mL	32 µg/mL (≈ 62.3 µM)	inactive	7 mm	> 500 µg/mL	8 mm	diameter of the inhibition zone (DIZ) (Candida albicans [24]): 7.8 mm; diameter of the inhibition zone (DIZ) (Candida tropicalis [25]): 7.5 mm; diameter of the inhibition zone (DIZ) (Cryptococcus neoformans [26]): inactive; diameter of the inhibition zone (DIZ) (Aspergillus niger [27]): 7.5 mm
Clc1ccc(OCc2ccccc2COc2ccc(Cl)c3cccnc23)c2ncccc12	64 µg/mL (≈ 139 µM)	32 µg/mL (≈ 69.4 µM)	32 µg/mL (≈ 69.4 µM)	7.5 mm	1000 µg/mL (≈ 2170 µM)	7 mm	inactive	32 µg/mL (≈ 69.4 µM)	6 mm	128 µg/mL (≈ 277 µM)	6 mm	1500 µg/mL (≈ 3250 µM)	1000 µg/mL (≈ 2170 µM)	inactive	64 µg/mL (≈ 139 µM)	32 µg/mL (≈ 69.4 µM)	7 mm	6.5 mm	> 500 µg/mL	6.5 mm	diameter of the inhibition zone (DIZ) (Candida albicans [24]): 7 mm; growth inhibition (GI) (Escherichia coli [28]): tde; diameter of the inhibition zone (DIZ) (Candida tropicalis [25]): 9 mm; diameter of the inhibition zone (DIZ) (Cryptococcus neoformans [26]): inactive; diameter of the inhibition zone (DIZ) (Aspergillus niger [27]): 7.5 mm
Cc1ccc2cccc(OCc3ccccc3COc3cccc4ccc(C)nc34)c2n1	32 µg/mL (≈ 76.1 µM)	64 µg/mL (≈ 152 µM)	128 µg/mL (≈ 304 µM)	inactive	2000 µg/mL (≈ 4760 µM)	6 mm	8 mm	> 1000 µg/mL	7 mm	128 µg/mL (≈ 304 µM)	8 mm	inactive	1000 µg/mL (≈ 2380 µM)	inactive	> 500 µg/mL	> 500 µg/mL	8 mm	7 mm	32 µg/mL (≈ 76.1 µM)	inactive	diameter of the inhibition zone (DIZ) (Candida albicans [24]): inactive; diameter of the inhibition zone (DIZ) (Candida tropicalis [25]): 7 mm; diameter of the inhibition zone (DIZ) (Cryptococcus neoformans [26]): inactive; diameter of the inhibition zone (DIZ) (Aspergillus niger [27]): 9 mm

— ChEMBL document CHEMBL3046627, “Synthesis and in vitro study of antibacterial, antifungal activities of some novel bisquinolines” (2013)
